Assay results reported in PubChem BioAssay AID256 (DTP/NCI, 2004).
Where “and” joins values, the source holds several entries; their conditions need not be identical. Equal entries are not always repeated. Inconclusive results and toxic doses are left out. The calls were made as follows: active = survival T/C of 150% or more; inactive = T/C below 125% in these data.

Test system: CD2F1 mice, L1210 leukemia ip, survival T/C
Experiment: NCI In Vivo Anticancer Drug Screen. Data for tumor model L1210 Leukemia (intraperitoneal) in CD2F1 (CDF1) mice
Conditions: endpoint: mean survival time, higher = longer survival
Summary of the method: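 In this screen, transplantable tumors were grown in mice given either the compound or its vehicle. Results were expressed as the treated measurement relative to the control measurement.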

[1] = dose: 100.0 mg/kg/injection, schedule: Q01DX009 (ip), vehicle: saline with Tween-80
[2] = dose: 200.0 mg/kg/injection, schedule: Q01DX009 (ip), vehicle: saline with Tween-80
[3] = dose: 400.0 mg/kg/injection, schedule: Q01DX009 (ip), vehicle: saline with Tween-80
[4] = dose: 100.0 mg/kg/injection, schedule: Q04DX002 (ip), vehicle: saline with Tween-80
[5] = dose: 200.0 mg/kg/injection, schedule: Q04DX002 (ip), vehicle: saline with Tween-80
[6] = dose: 75.0 mg/kg/injection, schedule: Q01DX001 (ip), vehicle: saline
[7] = dose: 100.0 mg/kg/injection, schedule: Q01DX001 (ip), vehicle: saline with Tween-80
[8] = dose: 400.0 mg/kg/injection, schedule: Q01DX001 (ip), vehicle: saline with Tween-80
[9] = dose: 50.0 mg/kg/injection, schedule: Q01DX009 (ip), vehicle: saline with Tween-80
[10] = dose: 100.0 mg/kg/injection, schedule: Q04DX003 (ip), vehicle: saline with Tween-80
[11] = dose: 200.0 mg/kg/injection, schedule: Q04DX003 (ip), vehicle: saline with Tween-80
[12] = dose: 200.0 mg/kg/injection, schedule: Q01DX001 (ip), vehicle: saline with Tween-80

Measured: T/C

O=C(O)CCC(=O)Nc1cccc(Oc2ccc([N+](=O)[O-])cc2[N+](=O)[O-])c1
inactive: dose: 100.0 mg/kg/injection, schedule: Q01DX009 (ip), vehicle: saline 94 % of control | dose: 200.0 mg/kg/injection, schedule: Q01DX009 (ip), vehicle: saline 94 % of control | dose: 400.0 mg/kg/injection, schedule: Q01DX009 (ip), vehicle: saline 100 % of control

CN(C)c1ccc(N=C(C#N)C(=O)c2ccccc2)cc1
inactive: [1] 95 % of control | [2] 97 % of control | [3] 97 % of control

C=C(Br)CNC(=O)C(C)C
inactive: dose: 5.0 mg/kg/injection, schedule: Q01DX009 (ip), vehicle: saline with Tween-80 98 % of control | dose: 10.0 mg/kg/injection, schedule: Q01DX009 (ip), vehicle: saline with Tween-80 100 % of control | dose: 20.0 mg/kg/injection, schedule: Q01DX009 (ip), vehicle: saline with Tween-80 100 % of control

Fc1c(F)c(F)c([Si](c2c(F)c(F)c(F)c(F)c2F)(c2c(F)c(F)c(F)c(F)c2F)c2c(F)c(F)c(F)c(F)c2F)c(F)c1F
inactive: [1] 97 % of control | [2] 100 % of control | [3] 98 % of control

CCCCCCCCCCCCCCCc1cc(O)ccc1[N+](=O)[O-]
inactive: [1] 111 % of control | [2] 115 % of control | [3] 96 % of control

C=C(C)COc1cc(C=NCCCC)c(C)cc1C
inactive: [1] 98 % of control | [2] 94 % of control | [3] 96 % of control

O=c1[nH]c2ccccc2nc1Cl
inactive: dose: 25.0 mg/kg/injection, schedule: Q04DX002 (ip), vehicle: saline with Tween-80 94 % of control | dose: 50.0 mg/kg/injection, schedule: Q04DX002 (ip), vehicle: saline with Tween-80 94 % of control | [4] 94 % of control | [5] 90 % of control | dose: 400.0 mg/kg/injection, schedule: Q04DX002 (ip), vehicle: saline with Tween-80 90 % of control

O=C(CCNC(=O)OCc1ccccc1)NC(CSCc1ccccc1)C(=O)O (configuration not stated)
inactive: dose: 25.0 mg/kg/injection, schedule: Q01DX005 (ip), vehicle: water 101 % of control | dose: 50.0 mg/kg/injection, schedule: Q01DX005 (ip), vehicle: water 106 % of control | dose: 100.0 mg/kg/injection, schedule: Q01DX005 (ip), vehicle: water 101 % of control | dose: 200.0 mg/kg/injection, schedule: Q01DX005 (ip), vehicle: water 108 % of control

O=P(Nc1ccccc1)(Oc1c(F)c(F)c(F)c(F)c1F)N(CCCl)CCCl (configuration not stated)
inactive: dose: 62.5 mg/kg/injection, schedule: Q01DX001 (ip), vehicle: other 87 % of control | dose: 125.0 mg/kg/injection, schedule: Q01DX001 (ip), vehicle: other 107 % of control | dose: 250.0 mg/kg/injection, schedule: Q01DX001 (ip), vehicle: other 96 % of control | dose: 500.0 mg/kg/injection, schedule: Q01DX001 (ip), vehicle: other 96 % of control

NOCc1ccccc1CON
inactive: [6] 96 % of control | dose: 150.0 mg/kg/injection, schedule: Q01DX001 (ip), vehicle: saline 100 % of control | dose: 300.0 mg/kg/injection, schedule: Q01DX001 (ip), vehicle: saline 100 % of control

C#CC[N+](CC)(CC)CCNC(=O)CCCCCCCCCCCCCCC
inactive: [6] 102 % of control

CC1CCCCN1 (configuration not stated)
inactive: [7] 95 % of control | [8] 95 % of control

O=C(O)c1c2c(nc3ccccc13)Cc1ccccc1-2
inactive: dose: 12.5 mg/kg/injection, schedule: Q01DX009 (ip), vehicle: water 104 % of control and 109 % of control | dose: 25.0 mg/kg/injection, schedule: Q01DX009 (ip), vehicle: water 103 % of control and 108 % of control | [9] 96 % of control | dose: 50.0 mg/kg/injection, schedule: Q01DX009 (ip), vehicle: water 105 % of control and 110 % of control | [1] 104 % of control | dose: 100.0 mg/kg/injection, schedule: Q01DX009 (ip), vehicle: water 100 % of control and 112 % of control | [10] 98 % of control | [2] 101 % of control | dose: 200.0 mg/kg/injection, schedule: Q01DX009 (ip), vehicle: water 114 % of control | [11] 104 % of control

CC(N)CC(C)N (configuration not stated)
inactive: dose: 100.0 mg/kg/injection, schedule: Q04DX002 (ip), vehicle: saline 105 % of control | dose: 200.0 mg/kg/injection, schedule: Q04DX002 (ip), vehicle: saline 109 % of control

CC12CCC3C(CCC4=CC(=O)C(C(O)(C(F)(F)F)C(F)(F)F)CC43C)C1CC(C(O)(C(F)(F)F)C(F)(F)F)C2=O (configuration not stated)
inactive: dose: 100.0 mg/kg/injection, schedule: Q01DX009 (sc), vehicle: steriod suspending solution 90 % of control | dose: 200.0 mg/kg/injection, schedule: Q01DX009 (sc), vehicle: steriod suspending solution 95 % of control | dose: 400.0 mg/kg/injection, schedule: Q01DX009 (sc), vehicle: steriod suspending solution 92 % of control

CS/C([S-])=N/N=C\c1ccccn1.CS/C([S-])=N/N=C\c1ccccn1.[Fe+2]
inactive: [10] 103 % of control | [11] 91 % of control | dose: 400.0 mg/kg/injection, schedule: Q04DX003 (ip), vehicle: saline with Tween-80 91 % of control

Cc1c(N)cc([N+](=O)[O-])c(C)c1[N+](=O)[O-]
inactive: [9] 110 % of control | [1] 104 % of control | [10] 98 % of control | [2] 117 % of control | [11] 98 % of control

CC(=O)c1ccc(C(=O)CC(O)(C(F)(F)F)C(F)(F)F)cc1
inactive: dose: 50.0 mg/kg/injection, schedule: Q01DX009 (ip), vehicle: other 98 % of control | dose: 100.0 mg/kg/injection, schedule: Q01DX009 (ip), vehicle: other 104 % of control | dose: 100.0 mg/kg/injection, schedule: Q04DX003 (ip), vehicle: other 95 % of control | dose: 200.0 mg/kg/injection, schedule: Q01DX009 (ip), vehicle: other 106 % of control | dose: 200.0 mg/kg/injection, schedule: Q04DX003 (ip), vehicle: other 97 % of control

N=S(=O)(c1ccccc1)c1ccccc1
inactive: [7] 98 % of control | [4] 110 % of control | [12] 94 % of control | [5] 93 % of control | [8] 107 % of control

C[SeH]C.C[SeH]C.[Cl][Pt][Cl]
inactive: dose: 0.94 mg/kg/injection, schedule: Q04DX003 (ip), vehicle: saline 100 % of control | dose: 1.88 mg/kg/injection, schedule: Q04DX003 (ip), vehicle: saline 97 % of control | dose: 3.75 mg/kg/injection, schedule: Q04DX003 (ip), vehicle: saline 97 % of control | dose: 7.5 mg/kg/injection, schedule: Q04DX003 (ip), vehicle: saline 100 % of control | dose: 15.0 mg/kg/injection, schedule: Q04DX003 (ip), vehicle: saline 100 % of control | dose: 30.0 mg/kg/injection, schedule: Q04DX003 (ip), vehicle: saline 105 % of control

CC(=O)Oc1c(C)ncc(C=O)c1C
inactive: dose: 75.0 mg/kg/injection, schedule: Q01DX001 (ip), vehicle: other 101 % of control | dose: 150.0 mg/kg/injection, schedule: Q01DX001 (ip), vehicle: other 100 % of control

O=C(O)c1cc2ccccc2o1
inactive: [7] 94 % of control | [10] 95 % of control | [12] 98 % of control | [11] 94 % of control

O=c1cn[nH]c2ccc(Br)cc12
inactive: dose: 100.0 mg/kg/injection, schedule: Q01DX001 (ip), vehicle: other 97 % of control | dose: 200.0 mg/kg/injection, schedule: Q01DX001 (ip), vehicle: other 102 % of control | dose: 400.0 mg/kg/injection, schedule: Q01DX001 (ip), vehicle: other 91 % of control

CCC[n+]1c(C)oc2ccc(-c3ccccc3)cc21
inactive: [10] 100 % of control | [11] 101 % of control
